Data published in patent publication US20140137294A1, “GLUCOSINOLATE TRANSPORTER PROTEIN AND USES THEREOF” (UNIVERSITY OF COPENHAGEN, priority 2010, published 2014).

T1: AtGTR1 (Arabidopsis thaliana, UniProt Q944G5)
T1 construct: A library of Arabidopsis transporters available as full length cDNAs from the RIKEN bioresource center; expressed in transfected cells; host or cells: Xenopus oocytes injected with in vitro transcribed cRNA
T1 sequence (Q944G5 31-636 limits assumed): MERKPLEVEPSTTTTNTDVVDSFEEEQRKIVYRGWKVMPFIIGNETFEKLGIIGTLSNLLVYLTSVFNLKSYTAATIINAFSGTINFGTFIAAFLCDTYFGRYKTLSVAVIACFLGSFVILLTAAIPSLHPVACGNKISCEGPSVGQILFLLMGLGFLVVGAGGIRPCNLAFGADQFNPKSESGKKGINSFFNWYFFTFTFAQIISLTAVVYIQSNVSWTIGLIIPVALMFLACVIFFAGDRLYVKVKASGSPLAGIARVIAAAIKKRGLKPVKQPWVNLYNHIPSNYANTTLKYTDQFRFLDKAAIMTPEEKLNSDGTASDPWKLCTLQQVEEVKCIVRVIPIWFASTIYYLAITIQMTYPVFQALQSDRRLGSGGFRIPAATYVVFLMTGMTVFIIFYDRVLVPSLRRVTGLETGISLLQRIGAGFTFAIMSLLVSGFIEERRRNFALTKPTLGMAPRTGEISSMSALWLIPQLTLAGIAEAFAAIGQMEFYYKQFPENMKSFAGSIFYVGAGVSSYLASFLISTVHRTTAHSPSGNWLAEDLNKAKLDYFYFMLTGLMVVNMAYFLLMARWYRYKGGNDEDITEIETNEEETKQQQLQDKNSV

T2: AtGTR2 (Arabidopsis thaliana, UniProt Q9LV10)
T2 construct: expressed in transfected cells; host or cells: Xenopus oocytes injected with in vitro transcribed cRNA (vector pNB1u)
T2 sequence (Q9LV10 1-616): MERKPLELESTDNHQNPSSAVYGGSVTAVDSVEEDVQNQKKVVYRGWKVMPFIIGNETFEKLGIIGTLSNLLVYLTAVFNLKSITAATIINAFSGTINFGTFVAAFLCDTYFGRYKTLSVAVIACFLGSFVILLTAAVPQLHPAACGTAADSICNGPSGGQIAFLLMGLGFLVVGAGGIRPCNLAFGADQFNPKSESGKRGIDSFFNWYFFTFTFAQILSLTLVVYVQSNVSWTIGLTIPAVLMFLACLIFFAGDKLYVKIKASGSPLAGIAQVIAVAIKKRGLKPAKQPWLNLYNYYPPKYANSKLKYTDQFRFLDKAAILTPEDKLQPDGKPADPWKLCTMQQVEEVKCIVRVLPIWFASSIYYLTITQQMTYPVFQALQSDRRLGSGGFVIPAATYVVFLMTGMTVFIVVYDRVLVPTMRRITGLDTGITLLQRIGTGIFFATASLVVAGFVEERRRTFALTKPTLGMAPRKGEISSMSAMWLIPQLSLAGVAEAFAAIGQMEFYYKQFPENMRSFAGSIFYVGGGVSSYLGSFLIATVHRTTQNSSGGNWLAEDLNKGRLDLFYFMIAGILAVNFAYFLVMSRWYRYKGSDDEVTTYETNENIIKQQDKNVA

B1: AtGTR4: Arabidopsis GTR protein, SEQ ID NO: 8 (protein, listed as Arabidopsis thaliana)
chain: MDNEKGTSSSDLTTRQRKPLGWKAMPYIIGNETLERLATFGLMANFMVYMVREYHMDQVQAVTLINTWSALTNFAPIIGAFISDSYTGKFNTIVFGSIAELLGMLVLTFTSLVPNLRPPPCTADQITGQCIPYSYSQLYVLLSGLFLLSVGTGGIRSCSVPFSLDQFDDSTEEGREGSRSFFSWYYTTHTIVQLVSMTLVLYVQNNISWGIGFAIPTVLNFFALLLLFVGTRYYVFVKPEGSVFSGVFKVLVAAYKKRKARFTSGIDYHQPLLETDLQSNKLVLTDQFRFLNKAVIVMNNDEAGNEEWRTCTVRQIEDIKSIISIIPIFASSIIGFLAMNQQQTFTVSQALKMDLQFPGTSYLIPPASITVISLLNIGIWLPFYETVLVRHIENITKQNGGISLLQKVGIGNIFSISTMLISGIVERKRRDLSLNGVKMSVFWLTPQQVLMGFYQVFTIVGLTEFFNKQVPINMRSIGNSLLYLGLSLASYLSSAMVSIVHSVTARGGQSWLTDDIDKSKLDCFYYFIAALSTLNFIFFFWCARRYRYRNYSNEQ
B2: AtGTR5: Arabidopsis GTR protein, SEQ ID NO: 10 (protein, listed as Arabidopsis thaliana)
chain: MVLEDRKDGSSLPGRSGSFSKSSPSELDVVDPYKRISSPGSILDAEKVEKKPGGWRAVSFILGNETLERLGSIGLLANFMVYLTKVFHLEQVDAANVINIWSGFTNLTPLVGAYISDTYVGRFKTIAFASFATLLGLITITLTASFPQLHPASCNSQDPLSCGGPNKLQIGVLLLGLCFLSVGSGGIRPCSIPFGVDQFDQRTEEGVKGVASFFNWYYMTFTVVLIITQTVVVYIQDQVSWIIGFSIPTGLMALAVVMFFAGMKRYVYVKPEGSIFSGIAQVIVAARKKRKLKLPAEDDGTVTYYDPAIKSSVLSKLHRSNQFRCLDKAAVVIEGDLTPEGPPADKWRLCSVQEVEEVKCLIRIVPIWSAGIISLAAMTTQGTFTVSQALKMDRNLGPKFEIPAGSLSVISLLTIGIFLPFYDRVFVPFMRRITGHKSGITLLQRIGTGIVFAIFSMIVAGIVERMRRIRSINAGDPTGMTPMSVFWLSPQLILMGLCEAFNIIGQIEFFNSQFPEHMRSIANSLFSLSFAGSSYLSSFLVTVVHKFSGGHDRPDWLNKNLNAGKLDYFYYLIAVLGVVNLVYFWYCARGYRYKVGLPIEDFEEDKSSDDVEMTSKKSMK

Experiments:
Assay type in all cases: cell-based
AtGTR1 [1] = molecular target: T1, AtGTR1; assay: Substrate-induced currents in voltage-clamped Xenopus oocytes expressing AtGTR1; conditions: 1 mM NO3−, AtGTR1
AtGTR2 = molecular target: T2, AtGTR2; assay: Uptake of C14-labeled pOHBG in AtGTR2 expressing oocytes in presence of excess competitor; conditions: 50× excess unlabeled competitor, AtGTR2, pH 5
Method: (§1) FIG. 3: Biochemical analysis of AtGTR1 and 2 mediated GSL transport in Xenopus oocytes. A and B, pH dependence of AtGTR-mediated GSL transport. A, AtGTR2 mediated 4-MTB uptake measured by LC-MS analysis of oocyte extracts, n=3 oocytes. B, AtGTR1 currents induced by 1 mM 4-MTB were measured at different membrane potentials at pH 5 ([…]), pH 6 (♦), and pH 7 (▴). Currents were normalized to the current induced at pH 5 at −60 mV, error bars are SD, n=4 oocytes. C and D, kinetic analysis of AtGTR-mediated glucosinolate transport. […]
(§2) The substrate specificity investigations were extended to include substrates previously identified for the NRT/PTR transporter family namely di- and tripeptides and nitrate. […] However, perfusing with 1 mM NO3^− did result in currents but these amounted only to 1/10th of currents measured when perfusing with 100 μM 4-MTB (FIG. 3F). […]
(§3) For assays with radiolabeled substrates, single oocytes were ruptured in 100 μl 10% SDS in 4 ml scintillation vials by shaking for 20-30 minutes. 2.5 ml EcoScint™ scintillation fluid (National Diagnostics) was added, and imported compounds quantified by scintillation counting. For assays with unlabeled substrates, oocyte extracts were analysed by LC-MS. Oocytes were analyzed in batches of 5 oocytes per repetition. […]

AtGTR1 [2] = molecular target: T1, AtGTR1; assay: Uptake of C14-labeled pOHBG in AtGTR1 expressing oocytes in presence of excess competitor; conditions: 50× excess unlabeled competitor, AtGTR1, pH 5
Method: as §1, §2, §3

Xenopus oocytes = assay: 4-MTB uptake in Xenopus oocytes expressing Arabidopsis GTR and other NRT/PTR proteins (LC-MS); conditions: pH 5, 1 mM 4-MTB

Row | Molecule | currents as fraction of currents with 100 μM 4-MTB (AtGTR1 [1]) | effect on uptake of 40 μM C14-labeled pOHBG (AtGTR2) | effect on uptake of 40 μM C14-labeled pOHBG (AtGTR1 [2]) | 4-MTB uptake activity compared to AtGTR1 (Xenopus oocytes)
1 | O=[N+]([O-])O [NO3^−, nitrate] | 1/10 | did not have significant inhibitory effects | did not have significant inhibitory effects | 
2 | B1 |  |  |  | 10%
3 | B2 |  |  |  | 10%
